From US20250171495A1, “MUTLI-TARGETED SERINE PROTEASE INHIBITORS FOR TREATMENT OF CANCER AND VIRAL INFECTION” (Washington University, priority 2023, published 2025)
“And” between values parts separate entries of the source, which are not always exact repeats. Equal entries are not always repeated. Where two headings read alike, the source gives them in different places. Values belong to the compound of their own block, whether it stands above or below them.

How the values were obtained:
Format in all cases: biochemical
TMPRSS2 [1] = biological target: T1, TMPRSS2 (Homo sapiens, UniProt O15393); experiment: Fluorogenic kinetic enzyme inhibitor assay, TMPRSS2; design: purchased Cusabio Technology CSB-YP023924HU
Target sequence in this assay (O15393 106-492 limits assumed): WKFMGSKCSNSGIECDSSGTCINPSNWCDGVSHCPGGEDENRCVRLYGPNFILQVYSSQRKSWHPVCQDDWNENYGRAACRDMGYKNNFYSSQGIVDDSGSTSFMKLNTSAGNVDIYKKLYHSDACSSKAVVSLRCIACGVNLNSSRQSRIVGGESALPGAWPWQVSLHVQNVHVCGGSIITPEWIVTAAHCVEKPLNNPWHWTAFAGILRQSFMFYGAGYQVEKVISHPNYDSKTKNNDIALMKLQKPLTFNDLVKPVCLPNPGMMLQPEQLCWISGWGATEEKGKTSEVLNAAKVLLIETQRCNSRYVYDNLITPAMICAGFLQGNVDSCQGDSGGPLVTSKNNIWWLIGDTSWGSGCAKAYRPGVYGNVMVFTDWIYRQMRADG

TMPRSS2 [2] = biological target: T1, TMPRSS2; experiment: PS-SCL / HyCoSuL substrate specificity screening, TMPRSS2; conditions: for P2 Position Substrate Activity for TMPRSS2 (percent substrate cleavage/proteolysis): residue fixed at P2 position of substrate library
Target sequence in this assay (O15393 whole entry): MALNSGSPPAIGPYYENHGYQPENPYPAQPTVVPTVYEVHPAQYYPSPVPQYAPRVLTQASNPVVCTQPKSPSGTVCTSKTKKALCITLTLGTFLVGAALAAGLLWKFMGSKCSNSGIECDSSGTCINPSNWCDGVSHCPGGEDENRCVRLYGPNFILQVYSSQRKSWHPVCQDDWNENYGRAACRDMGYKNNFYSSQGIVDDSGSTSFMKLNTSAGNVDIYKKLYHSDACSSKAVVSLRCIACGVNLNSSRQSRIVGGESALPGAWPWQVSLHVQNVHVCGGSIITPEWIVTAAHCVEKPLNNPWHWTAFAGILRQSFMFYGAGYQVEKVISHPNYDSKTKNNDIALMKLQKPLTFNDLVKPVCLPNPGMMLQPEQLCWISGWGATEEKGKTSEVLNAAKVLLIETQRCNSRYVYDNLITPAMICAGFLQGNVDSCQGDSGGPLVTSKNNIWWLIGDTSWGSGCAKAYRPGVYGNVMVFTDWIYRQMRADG

matriptase = biological target: T2, matriptase (Homo sapiens, UniProt Q9Y5Y6); experiment: HyCoSuL P4-P2 substrate specificity screening, matriptase; conditions: for P2 Position Substrate Activity for matriptase (percent substrate cleavage/proteolysis): residue fixed at P2 position; for P3 Position Various Amino Acids Substrate Activity, matriptase (percent substrate cleavage/proteolysis): residue fixed at P3 position of substrate library; for P4 Position Various Amino Acids Substrate Activity, matriptase (percent substrate proteolysis/cleavage): residue fixed at P4 position of substrate library
T2 sequence (Q9Y5Y6 1-855): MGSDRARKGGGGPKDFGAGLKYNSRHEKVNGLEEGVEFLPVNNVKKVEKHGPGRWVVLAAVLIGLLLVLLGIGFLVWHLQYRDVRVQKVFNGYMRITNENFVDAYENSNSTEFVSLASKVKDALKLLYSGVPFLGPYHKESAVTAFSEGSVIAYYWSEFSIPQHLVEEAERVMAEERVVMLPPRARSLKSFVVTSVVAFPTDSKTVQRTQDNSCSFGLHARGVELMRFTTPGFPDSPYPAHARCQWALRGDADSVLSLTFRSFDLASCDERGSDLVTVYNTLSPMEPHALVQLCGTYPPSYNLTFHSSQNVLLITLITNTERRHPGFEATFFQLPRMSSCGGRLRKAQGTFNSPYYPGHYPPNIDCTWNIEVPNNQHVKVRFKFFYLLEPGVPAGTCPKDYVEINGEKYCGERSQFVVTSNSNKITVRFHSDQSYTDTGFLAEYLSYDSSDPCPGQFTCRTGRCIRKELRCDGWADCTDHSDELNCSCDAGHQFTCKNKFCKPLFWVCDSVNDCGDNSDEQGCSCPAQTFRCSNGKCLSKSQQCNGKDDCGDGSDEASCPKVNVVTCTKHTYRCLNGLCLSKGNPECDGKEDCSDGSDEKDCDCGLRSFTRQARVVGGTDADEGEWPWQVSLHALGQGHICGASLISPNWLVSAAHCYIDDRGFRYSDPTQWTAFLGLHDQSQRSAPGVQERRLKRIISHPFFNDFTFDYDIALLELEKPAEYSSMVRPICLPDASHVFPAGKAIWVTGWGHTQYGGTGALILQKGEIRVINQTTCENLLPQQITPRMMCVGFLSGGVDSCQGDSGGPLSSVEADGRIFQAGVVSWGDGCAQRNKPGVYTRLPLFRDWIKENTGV

hepsin = biological target: T3, hepsin (Homo sapiens, UniProt P05981); experiment: HyCoSuL P4-P2 substrate specificity screening, hepsin; conditions: for P2 Position Substrate Activity for hepsin (percent substrate cleavage/proteolysis): residue fixed at P2 position
T3 construct: purchased R&D Systems 4776-SE-010

HGFA = biological target: T4, HGFA (Homo sapiens, UniProt Q04756); experiment: HyCoSuL P4-P2 substrate specificity screening, HGFA; conditions: for P2 Position Substrate Activity for HGFA (percent substrate cleavage/proteolysis): residue fixed at P2 position
T4 sequence (Q04756 373-655): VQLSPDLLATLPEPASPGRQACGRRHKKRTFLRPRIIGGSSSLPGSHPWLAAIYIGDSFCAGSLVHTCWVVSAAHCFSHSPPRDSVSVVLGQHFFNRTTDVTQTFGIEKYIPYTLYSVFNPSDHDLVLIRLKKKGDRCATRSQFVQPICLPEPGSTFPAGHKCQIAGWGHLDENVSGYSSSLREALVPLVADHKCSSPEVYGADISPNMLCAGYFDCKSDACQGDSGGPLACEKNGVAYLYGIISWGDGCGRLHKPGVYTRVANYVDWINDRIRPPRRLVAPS

[3] = best recognized amino acid set to 100%
[4] = residue fixed at P3 position of substrate library
[5] = residue fixed at P4 position of substrate library
[6] = P1-Arg HyCoSuL, 100 μM, best recognized amino acid set to 100%
[7] = residue fixed at P3 position, P1-Arg HyCoSuL, 100 μM, best recognized amino acid set to 100%
[8] = residue fixed at P4 position, P1-Arg HyCoSuL, 100 μM, best recognized amino acid set to 100%

T3 sequence (P05981 163-417 limits assumed): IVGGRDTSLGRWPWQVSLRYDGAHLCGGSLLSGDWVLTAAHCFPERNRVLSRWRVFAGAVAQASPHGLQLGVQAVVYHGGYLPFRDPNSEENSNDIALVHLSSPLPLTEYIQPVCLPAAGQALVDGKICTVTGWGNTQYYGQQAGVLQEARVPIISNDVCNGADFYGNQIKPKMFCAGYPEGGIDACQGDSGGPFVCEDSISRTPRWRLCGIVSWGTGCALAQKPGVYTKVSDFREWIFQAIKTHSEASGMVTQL
T3 sequence (P05981 1-162 partner limits assumed): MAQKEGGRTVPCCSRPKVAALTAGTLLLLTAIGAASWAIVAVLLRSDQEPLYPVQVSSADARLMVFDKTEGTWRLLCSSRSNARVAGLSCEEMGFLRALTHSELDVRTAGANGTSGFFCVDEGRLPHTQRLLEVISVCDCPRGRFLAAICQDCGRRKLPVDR

Compound: C=CCOC(=O)CC[C@H](NC(=O)[C@@H]1Cc2ccccc2N1C(C)=O)C(=O)N[C@@H](Cc1ccc(F)cc1)C(=O)N[C@H](CCCNC(=N)N)C(=O)c1nc2ccccc2s1 [MF1067A, allyl (S)-4-[(S)-1-acetyl-2-indolinylcarbonylamino]-4-[N-(S)-2-(p-fluorophenyl)-1-[N-(R)-1-[(1,3-benzothiazol-2-yl)carbonyl]-4-guanidinobutylcarbamoyl]ethylcarbamoyl]butyrate]
IC50 (TMPRSS2 [1]): 0.431 nM

Compound: C=CCOC(=O)CC[C@H](NC(=O)[C@@H]1Cc2ccccc2N1C(C)=O)C(=O)N[C@@H](Cc1ccc(F)cc1)C(=O)N[C@@H](CCCNC(=N)N)C(=O)c1nc2ccccc2s1 [MF1067B, allyl (S)-4-[(S)-1-acetyl-2-indolinylcarbonylamino]-4-[N-(S)-2-(p-fluorophenyl)-1-[N-(S)-1-[(1,3-benzothiazol-2-yl)carbonyl]-4-guanidinobutylcarbamoyl]ethylcarbamoyl]butyrate]
IC50 (TMPRSS2 [1]): 0.2 nM

Compound: CC(=O)NCC(=O)N[C@@H](CCC(N)=O)C(=O)N[C@@H](Cc1ccccc1)C(=O)N[C@H](CCCNC(=N)N)C(=O)c1nc2ccccc2s1 [MM3122-1, N-[(S)-1-[N-(R)-1-[(1,3-benzothiazol-2-yl)carbonyl]-4-guanidinobutylcarbamoyl]-2-phenylethyl](S)-2-[(acetylaminomethyl)carbonylamino]glutaramide]
IC50 (TMPRSS2 [1]; read-out: TMPRSS2 IC50): 6.46 nM

Compound: N=C(N)NCCC[C@H](NC(=O)[C@H](Cc1ccccc1)NC(=O)[C@H](N)Cc1c[nH]c2ccccc12)C(=O)c1nc2ccccc2s1 [PK-1-18A1, N-[(S)-1-[(1,3-benzothiazol-2-yl)carbonyl]-4-guanidinobutyl](S)-2-[(R)-2-amino-3-(3-indolyl)propionylamino]-3-phenylpropionamide]
IC50 (TMPRSS2 [1]; read-out: TMPRSS2 IC50): 25.8 nM

Compound: N=C(N)NCCC[C@H](NC(=O)[C@H](Cc1ccccc1)NC(=O)[C@H](N)Cc1c[nH]c2ccccc12)C(=O)c1nc2ccc(C(=O)O)cc2s1 [PK-1-45A1, 2-[(S)-2-[(S)-2-[(R)-2-amino-3-(3-indolyl)propionylamino]-3-phenylpropionylamino]-5-guanidinovaleryl]-1,3-benzothiazole-6-carboxylic acid]
IC50 (TMPRSS2 [1]; read-out: TMPRSS2 IC50): 1.94 nM

Compound: CC(=O)N[C@H]1Cc2ccc(cc2)Oc2ccc(cc2)C[C@@H](C(=O)N[C@@H](CCCNC(=N)N)C(=O)c2nc3ccccc3s2)NC(=O)[C@H](CC(C)C)NC1=O [VD5076B, N-[(S)-1-[(1,3-benzothiazol-2-yl)carbonyl]-4-guanidinobutyl]-(8S,11S,14S)-14-acetylamino-11-isobutyl-10,13-dioxo-2-oxa-9,12-diazatricyclo[14.2.2.2^3,^6]docosa-1(18),3,5,16,19,21-hexaene-8-carboxamide]
IC50 (TMPRSS2 [1]; read-out: TMPRSS2 IC50): 1.25 nM

Now from value to compound:

IC50 (TMPRSS2 [1]; read-out: TMPRSS2 IC50): 0.167 nM
Compound: N=C(N)NCCC[C@H](NC(=O)[C@H](CCc1ccc(O)cc1)NC(=O)OCC1c2ccccc2-c2ccccc21)C(=O)c1nc2ccccc2s1 [MF1163, (S)-3-(p-hydroxyphenyl)-1-[N-(S)-1-[(1,3-benzothiazol-2-yl)carbonyl]-4-guanidinobutylcarbamoyl] propyl (9H-fluoren-9-yl)methanecarbamate]

IC50 (TMPRSS2 [1]; read-out: TMPRSS2 IC50): 458 nM
Compound: CC(C)CC[C@H](NC(=O)OCC1c2ccccc2-c2ccccc21)C(=O)N[C@@H](CCCNC(=N)N)C(=O)c1nc2ccccc2s1 [MF1164, (S)-4-methyl-1-[N-(S)-1-[(1,3-benzothiazol-2-yl)carbonyl]-4-guanidinobutylcarbamoyl] pentyl (9H-fluoren-9-yl)methanecarbamate]

IC50 (TMPRSS2 [1]; read-out: TMPRSS2 IC50): 7.54 nM
Compound: CC(=O)N[C@@H](CCCCNC(=N)N)C(=O)N[C@@H](Cc1cncn1COCc1ccccc1)C(=O)N[C@@H](CCC(C)C)C(=O)N[C@H](CCCNC(=N)N)C(=O)c1nc2ccccc2s1 [MM4031-1, N-[(R)-1-[(1,3-benzothiazol-2-yl)carbonyl]-4-guanidinobutyl](S)-2-[(S)-2-[(S)-1-acetylamino-5-guanidinopentylcarbonylamino]-3-{1-[(benzyloxy)methyl]-5-imidazolyl}propionylamino]-5-methylhexanamide]

IC50 (TMPRSS2 [1]; read-out: TMPRSS2 IC50): 9.39 nM
Compound: CC(=O)N[C@@H](CCCCNC(=N)N)C(=O)N[C@@H](Cc1cncn1COCc1ccccc1)C(=O)N[C@@H](CCC(C)C)C(=O)N[C@@H](CCCNC(=N)N)C(=O)c1nc2ccccc2s1 [MM4031-2, N-[(S)-1-[(1,3-benzothiazol-2-yl)carbonyl]-4-guanidinobutyl](S)-2-[(S)-2-[(S)-1-acetylamino-5-guanidinopentylcarbonylamino]-3-{1-[(benzyloxy)methyl]-5-imidazolyl}propionylamino]-5-methylhexanamide]

IC50 (TMPRSS2 [1]; read-out: TMPRSS2 IC50): 0.385 nM
Compound: CCC(C)[C@H](NC(C)=O)C(=O)N[C@@H](CCC(=O)O)C(=O)N[C@@H](Cc1ccccc1)C(=O)N[C@H](CCCNC(=N)N)C(=O)c1nc2ccccc2s1 (stereo partly drawn) [MM4037-1, (S)-4-[(2S)-2-acetylamino-3-methylvalerylamino]-4-[N-(S)-1-[N-(R)-1-[(1,3-benzothiazol-2-yl)carbonyl]-4-guanidinobutylcarbamoyl]-2-phenylethylcarbamoyl]butyric acid]

IC50 (TMPRSS2 [1]; read-out: TMPRSS2 IC50): 1.91 nM
Compound: CC(=O)N[C@H](Cc1c[nH]c2ccccc12)C(=O)N[C@@H](CC(C)C)C(=O)N[C@@H](CCCNC(=N)N)C(=O)c1nc2ccc(C(=O)O)cc2s1 [PK-1-94, 2-[(S)-2-[(S)-2-[(R)-2-acetylamino-3-(3-indolyl)propionylamino]-4-methylvalerylamino]-5-guanidinovaleryl]-1,3-benzothiazole-6-carboxylic acid]

P2 Position Substrate Activity for TMPRSS2 (percent substrate cleavage/proteolysis) (TMPRSS2 [2]; [3]): 31.93%
P3 Position Various Amino Acids Substrate Activity, TMPRSS2 (percent substrate cleavage/proteolysis) (TMPRSS2 [2]; [4]): 16.18%
P4 Position Various Amino Acids Substrate Activity, TMPRSS2 (percent substrate proteolysis/cleavage) (TMPRSS2 [2]; [5]): 31.87%
P2 Position Substrate Activity for matriptase (percent substrate cleavage/proteolysis) (matriptase; [6]): 12%
P3 Position Various Amino Acids Substrate Activity, matriptase (percent substrate cleavage/proteolysis) (matriptase): 17%
P4 Position Various Amino Acids Substrate Activity, matriptase (percent substrate proteolysis/cleavage) (matriptase): 14%
P2 Position Substrate Activity for hepsin (percent substrate cleavage/proteolysis) (hepsin; [6]): 22.79%
P3 Position Various Amino Acids Substrate Activity, hepsin (percent substrate cleavage/proteolysis) (hepsin; [4]): 7.75%
P4 Position Various Amino Acids Substrate Activity, hepsin (percent substrate proteolysis/cleavage) (hepsin; [5]): 22.39%
P2 Position Substrate Activity for HGFA (percent substrate cleavage/proteolysis) (HGFA; [6]): 3.17%
P3 Position Various Amino Acids Substrate Activity, HGFA (percent substrate cleavage/proteolysis) (HGFA; [4]): 11.59%
P4 Position Various Amino Acids Substrate Activity, HGFA (percent substrate proteolysis/cleavage) (HGFA; [5]): 16.47%
Compound: L-Tyr

P2 Position Substrate Activity for TMPRSS2 (percent substrate cleavage/proteolysis) (TMPRSS2 [2]; [3]): 13.07%
P3 Position Substrate Activity for TMPRSS2 (percent substrate cleavage/proteolysis) (TMPRSS2 [2]; residue fixed at P3 position of substrate library, best recognized amino acid set to 100%): 18.34%
P4 Position Substrate Activity for TMPRSS2 (percent substrate cleavage/proteolysis) (TMPRSS2 [2]; residue fixed at P4 position of substrate library, best recognized amino acid set to 100%): 44.91%
P2 Position Substrate Activity for matriptase (percent substrate cleavage/proteolysis) (matriptase; [6]): 16%
P3 Position Various Amino Acids Substrate Activity, matriptase (percent substrate cleavage/proteolysis) (matriptase): 44%
P3 Position Substrate Activity for matriptase (percent substrate cleavage/proteolysis) (matriptase; [7]): 44.42%
P4 Position Various Amino Acids Substrate Activity, matriptase (percent substrate proteolysis/cleavage) (matriptase): 86%
P4 Position Substrate Activity for matriptase (percent substrate cleavage/proteolysis) (matriptase; [8]): 76.43% and 86.17%
P2 Position Substrate Activity for hepsin (percent substrate cleavage/proteolysis) (hepsin; [6]): 57.96%
P3 Position Substrate Activity for hepsin (percent substrate cleavage/proteolysis) (hepsin; [7]): 47.00%
P4 Position Substrate Activity for hepsin (percent substrate cleavage/proteolysis) (hepsin; [8]): 56.24%
P2 Position Substrate Activity for HGFA (percent substrate cleavage/proteolysis) (HGFA; [6]): 5.83%
P3 Position Substrate Activity for HGFA (percent substrate cleavage/proteolysis) (HGFA; [7]): 100.00%
P4 Position Substrate Activity for HGFA (percent substrate cleavage/proteolysis) (HGFA; [8]): 22.07%
Compound: L-hArg
